Laboratory results: article PMC6407917, “Identification of GSK3186899/DDD853651 as a Preclinical Development Candidate for the Treatment of Visceral Leishmaniasis” (Journal of Medicinal Chemistry, 2018)
pIC50: −log10 of the molar value.

What was measured:
Assay in all cases: biochemical
Design in all cases: species or system HEK293/K-562/placenta mixed human extract; Kinobeads chemoproteomic competition binding, quantified by TMT LC-MS/MS, dose response up to 20 uM
[1] = molecular target: MAP3K4 (Homo sapiens, UniProt Q9Y6R4)
[2] = molecular target: WNK4 (Homo sapiens, UniProt Q96J92)
[3] = molecular target: SERPINB2 (Homo sapiens, UniProt P05120)
[4] = molecular target: CDK2 (Homo sapiens, UniProt P24941)
[5] = molecular target: CAMKK1 (Homo sapiens, UniProt Q8N5S9)
[6] = molecular target: BMP2K (Homo sapiens, UniProt Q9NSY1)
[7] = molecular target: MAP4K3 (Homo sapiens, UniProt Q8IVH8)
[8] = molecular target: PRKAB2 (Homo sapiens, UniProt O43741)
[9] = molecular target: TNK1 (Homo sapiens, UniProt Q13470)
[10] = molecular target: MERTK (Homo sapiens, UniProt Q12866)
[11] = molecular target: CHEK1 (Homo sapiens, UniProt O14757)
[12] = molecular target: DCK (Homo sapiens, UniProt P27707)
[13] = molecular target: LYN (Homo sapiens, UniProt P07948)
[14] = molecular target: TAOK3 (Homo sapiens, UniProt Q9H2K8)
[15] = molecular target: STK17B (Homo sapiens, UniProt O94768)
[16] = molecular target: ABL2 (Homo sapiens, UniProt P42684)
[17] = molecular target: EPHB1 (Homo sapiens, UniProt P54762)
[18] = molecular target: ILK (Homo sapiens, UniProt Q13418)
[19] = molecular target: IKBKB (Homo sapiens, UniProt O14920)
[20] = molecular target: DDR2 (Homo sapiens, UniProt Q16832)
[21] = molecular target: AURKA (Homo sapiens, UniProt O14965)

Sequence of BMP2K (Q9NSY1 whole entry): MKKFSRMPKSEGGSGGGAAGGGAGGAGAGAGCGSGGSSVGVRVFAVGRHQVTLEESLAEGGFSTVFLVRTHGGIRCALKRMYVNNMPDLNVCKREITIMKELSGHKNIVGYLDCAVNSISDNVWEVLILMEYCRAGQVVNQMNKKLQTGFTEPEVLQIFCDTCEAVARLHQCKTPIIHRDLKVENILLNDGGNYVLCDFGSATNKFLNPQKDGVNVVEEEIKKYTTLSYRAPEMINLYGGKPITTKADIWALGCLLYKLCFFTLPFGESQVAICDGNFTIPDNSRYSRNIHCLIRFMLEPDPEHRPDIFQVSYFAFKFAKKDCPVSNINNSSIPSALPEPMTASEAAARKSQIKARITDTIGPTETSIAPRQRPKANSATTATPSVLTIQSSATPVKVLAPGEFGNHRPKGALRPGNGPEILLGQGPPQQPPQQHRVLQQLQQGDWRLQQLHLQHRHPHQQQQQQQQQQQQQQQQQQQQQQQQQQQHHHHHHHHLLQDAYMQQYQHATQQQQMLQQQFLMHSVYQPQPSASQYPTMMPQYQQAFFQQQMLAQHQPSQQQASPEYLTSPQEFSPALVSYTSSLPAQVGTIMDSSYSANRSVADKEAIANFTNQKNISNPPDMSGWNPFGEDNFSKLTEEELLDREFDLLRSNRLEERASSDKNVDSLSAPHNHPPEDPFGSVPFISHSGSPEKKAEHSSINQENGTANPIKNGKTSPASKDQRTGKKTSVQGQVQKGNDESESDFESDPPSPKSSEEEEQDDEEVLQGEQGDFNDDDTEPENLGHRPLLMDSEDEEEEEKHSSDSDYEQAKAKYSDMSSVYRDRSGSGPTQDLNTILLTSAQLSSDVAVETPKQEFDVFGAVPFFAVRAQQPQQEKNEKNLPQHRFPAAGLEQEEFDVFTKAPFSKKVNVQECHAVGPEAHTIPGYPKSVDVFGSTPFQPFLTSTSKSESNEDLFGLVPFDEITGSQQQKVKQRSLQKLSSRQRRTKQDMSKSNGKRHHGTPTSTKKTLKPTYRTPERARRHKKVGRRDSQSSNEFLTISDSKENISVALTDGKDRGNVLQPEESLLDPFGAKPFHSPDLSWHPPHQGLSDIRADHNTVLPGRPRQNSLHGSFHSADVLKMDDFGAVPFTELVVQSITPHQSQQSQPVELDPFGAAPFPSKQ
Sequence of ABL2 (P42684 whole entry): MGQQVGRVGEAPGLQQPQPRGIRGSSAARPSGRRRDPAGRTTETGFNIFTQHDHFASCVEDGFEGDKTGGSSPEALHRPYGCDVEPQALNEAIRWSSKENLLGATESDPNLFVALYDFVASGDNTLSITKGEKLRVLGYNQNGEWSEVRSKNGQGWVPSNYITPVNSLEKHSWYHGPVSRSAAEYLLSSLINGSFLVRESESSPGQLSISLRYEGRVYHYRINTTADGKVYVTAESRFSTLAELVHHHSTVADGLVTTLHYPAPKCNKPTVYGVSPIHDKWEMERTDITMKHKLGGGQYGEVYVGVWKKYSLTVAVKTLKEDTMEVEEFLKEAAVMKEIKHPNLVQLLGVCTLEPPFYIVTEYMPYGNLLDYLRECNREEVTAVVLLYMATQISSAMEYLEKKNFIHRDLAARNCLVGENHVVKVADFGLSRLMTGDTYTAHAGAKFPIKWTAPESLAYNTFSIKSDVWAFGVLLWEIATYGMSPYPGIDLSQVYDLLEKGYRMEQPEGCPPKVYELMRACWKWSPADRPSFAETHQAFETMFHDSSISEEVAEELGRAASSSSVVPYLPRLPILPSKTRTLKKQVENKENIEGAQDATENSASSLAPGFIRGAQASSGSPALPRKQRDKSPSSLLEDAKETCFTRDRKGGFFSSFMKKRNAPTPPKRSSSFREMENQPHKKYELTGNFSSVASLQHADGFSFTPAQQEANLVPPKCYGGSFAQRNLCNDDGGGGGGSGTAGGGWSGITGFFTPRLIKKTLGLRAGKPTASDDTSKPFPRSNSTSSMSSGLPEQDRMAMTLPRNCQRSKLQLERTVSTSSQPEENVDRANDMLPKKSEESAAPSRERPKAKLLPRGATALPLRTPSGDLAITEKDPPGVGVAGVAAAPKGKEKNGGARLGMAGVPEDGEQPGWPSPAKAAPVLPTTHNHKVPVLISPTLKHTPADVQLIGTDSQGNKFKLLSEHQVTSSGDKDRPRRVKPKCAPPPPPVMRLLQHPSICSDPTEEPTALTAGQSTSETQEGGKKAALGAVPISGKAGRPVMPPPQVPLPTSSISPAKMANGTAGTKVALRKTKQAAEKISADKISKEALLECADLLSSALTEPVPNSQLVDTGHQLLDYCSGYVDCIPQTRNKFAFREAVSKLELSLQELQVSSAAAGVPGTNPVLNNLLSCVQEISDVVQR
Sequence of TAOK3 (Q9H2K8 whole entry): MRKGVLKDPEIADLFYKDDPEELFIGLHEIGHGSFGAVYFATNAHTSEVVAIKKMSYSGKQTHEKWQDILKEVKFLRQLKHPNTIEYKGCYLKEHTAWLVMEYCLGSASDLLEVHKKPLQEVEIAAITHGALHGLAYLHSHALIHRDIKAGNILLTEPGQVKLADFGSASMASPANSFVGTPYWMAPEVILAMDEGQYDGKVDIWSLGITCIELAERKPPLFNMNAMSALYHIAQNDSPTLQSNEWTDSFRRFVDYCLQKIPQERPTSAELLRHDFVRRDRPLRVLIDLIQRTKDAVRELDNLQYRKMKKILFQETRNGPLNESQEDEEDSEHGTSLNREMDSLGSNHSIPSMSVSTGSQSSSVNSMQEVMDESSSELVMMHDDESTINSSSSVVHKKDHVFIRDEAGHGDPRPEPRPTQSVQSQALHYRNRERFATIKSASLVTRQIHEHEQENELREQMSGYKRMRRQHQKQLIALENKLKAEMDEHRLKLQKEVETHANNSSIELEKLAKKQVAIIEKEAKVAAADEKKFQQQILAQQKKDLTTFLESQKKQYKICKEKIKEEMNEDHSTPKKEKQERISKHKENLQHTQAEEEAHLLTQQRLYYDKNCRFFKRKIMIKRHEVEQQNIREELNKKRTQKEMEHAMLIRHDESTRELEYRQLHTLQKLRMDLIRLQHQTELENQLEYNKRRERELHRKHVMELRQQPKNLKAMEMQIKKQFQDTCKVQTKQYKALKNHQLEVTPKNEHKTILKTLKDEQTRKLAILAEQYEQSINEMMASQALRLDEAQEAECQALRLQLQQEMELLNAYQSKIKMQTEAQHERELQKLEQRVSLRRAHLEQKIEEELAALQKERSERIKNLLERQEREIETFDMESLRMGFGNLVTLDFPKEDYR
Sequence of WNK4 (Q96J92 whole entry): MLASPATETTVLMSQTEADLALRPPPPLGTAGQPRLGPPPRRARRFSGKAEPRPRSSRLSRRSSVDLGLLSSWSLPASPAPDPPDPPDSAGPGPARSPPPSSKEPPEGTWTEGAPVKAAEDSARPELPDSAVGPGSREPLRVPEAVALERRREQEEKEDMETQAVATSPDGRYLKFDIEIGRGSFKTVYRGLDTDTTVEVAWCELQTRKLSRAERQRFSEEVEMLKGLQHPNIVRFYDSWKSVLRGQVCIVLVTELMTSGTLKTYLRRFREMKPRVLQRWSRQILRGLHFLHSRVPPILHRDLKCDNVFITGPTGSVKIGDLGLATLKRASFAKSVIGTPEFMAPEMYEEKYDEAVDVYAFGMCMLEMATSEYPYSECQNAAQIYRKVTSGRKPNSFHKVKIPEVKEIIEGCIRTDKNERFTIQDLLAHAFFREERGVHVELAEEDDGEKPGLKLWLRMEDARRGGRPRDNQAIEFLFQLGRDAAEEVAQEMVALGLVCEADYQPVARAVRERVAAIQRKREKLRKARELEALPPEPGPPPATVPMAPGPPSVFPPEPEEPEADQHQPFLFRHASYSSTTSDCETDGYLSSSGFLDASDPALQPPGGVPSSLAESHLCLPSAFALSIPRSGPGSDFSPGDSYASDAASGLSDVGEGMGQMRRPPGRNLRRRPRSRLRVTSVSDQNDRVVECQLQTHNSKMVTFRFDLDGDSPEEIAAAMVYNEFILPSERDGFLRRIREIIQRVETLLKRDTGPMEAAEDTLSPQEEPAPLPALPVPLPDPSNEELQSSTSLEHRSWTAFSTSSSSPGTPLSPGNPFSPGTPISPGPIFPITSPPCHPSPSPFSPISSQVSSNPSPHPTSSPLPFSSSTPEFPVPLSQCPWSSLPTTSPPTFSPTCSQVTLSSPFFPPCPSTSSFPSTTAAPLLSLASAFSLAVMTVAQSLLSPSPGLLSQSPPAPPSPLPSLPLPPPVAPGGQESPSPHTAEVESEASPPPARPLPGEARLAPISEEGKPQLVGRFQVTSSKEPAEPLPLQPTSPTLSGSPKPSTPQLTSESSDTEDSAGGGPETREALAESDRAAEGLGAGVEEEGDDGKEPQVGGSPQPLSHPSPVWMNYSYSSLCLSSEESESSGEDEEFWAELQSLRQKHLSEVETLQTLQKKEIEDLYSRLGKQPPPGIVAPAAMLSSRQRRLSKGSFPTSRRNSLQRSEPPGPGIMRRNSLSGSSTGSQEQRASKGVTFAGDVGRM
Sequence of SERPINB2 (P05120 whole entry): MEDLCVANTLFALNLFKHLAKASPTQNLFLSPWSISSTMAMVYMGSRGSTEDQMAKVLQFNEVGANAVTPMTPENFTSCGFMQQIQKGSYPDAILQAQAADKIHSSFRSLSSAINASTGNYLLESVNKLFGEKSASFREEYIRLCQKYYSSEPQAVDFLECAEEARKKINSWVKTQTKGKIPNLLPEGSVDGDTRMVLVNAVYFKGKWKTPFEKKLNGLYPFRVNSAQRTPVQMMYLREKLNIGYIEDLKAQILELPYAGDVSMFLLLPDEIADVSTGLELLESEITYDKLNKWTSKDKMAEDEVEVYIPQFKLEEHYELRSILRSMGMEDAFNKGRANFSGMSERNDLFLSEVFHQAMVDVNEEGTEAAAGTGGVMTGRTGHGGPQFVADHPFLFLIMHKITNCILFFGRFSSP

## COc1ccccc1-c1n[nH]c2nc(N[C@H]3CC[C@H](NS(=O)(=O)CCC(F)(F)F)CC3)nc(OC)c12 [compound 31, 3,3,3-Trifluoro-N-(trans-4-((4-methoxy-3-(2-methoxyphenyl)-1H-pyrazolo[3,4-d]pyrimidin-6-yl)amino)cyclohexyl)propane-1-sulfonamide]
[1]
  pIC50: ≤ 4.70
[2]
  pIC50: ≤ 4.70
[3]
  pIC50: ≤ 4.70
[4]
  pIC50: 5.92
[5]
  pIC50: ≤ 4.70
[6]
  pIC50: ≤ 4.70
[7]
  pIC50: ≤ 4.70
[8]
  pIC50: ≤ 4.70
[9]
  pIC50: ≤ 4.70
[10]
  pIC50: ≤ 4.70
[11]
  pIC50: ≤ 4.70
[12]
  pIC50: ≤ 4.70
[13]
  pIC50: ≤ 4.70
[14]
  pIC50: 6.03
[15]
  pIC50: ≤ 4.70
[16]
  pIC50: ≤ 4.70
[17]
  pIC50: ≤ 4.70
[18]
  pIC50: ≤ 4.70
[19]
  pIC50: ≤ 4.70
[20]
  pIC50: ≤ 4.70
[21]
  pIC50: ≤ 4.70
